The source made the active and inactive calls. The rule behind the calls is not given here.
Columns and labels:
Format in all cases: cell-based
[1] = target: T1, Retinoic acid receptor (Homo sapiens) (UniProt P13631+P10826+P10276); assay: Activation of RAR in human HepG2 cells assessed as increase in CAR mRNA level at 10 uM after 24 hrs by RT-PCR analysis
[2] = target: T2, Oxysterols receptor LXR-alpha (Homo sapiens) (UniProt Q13133); assay: Agonist activity at LXR-alpha (unknown origin) expressed in HEK293 cells assessed as transcriptional activation at 1 to 25 uM after 40 hrs by luciferase reporter gene assay
T2 sequence (whole entry): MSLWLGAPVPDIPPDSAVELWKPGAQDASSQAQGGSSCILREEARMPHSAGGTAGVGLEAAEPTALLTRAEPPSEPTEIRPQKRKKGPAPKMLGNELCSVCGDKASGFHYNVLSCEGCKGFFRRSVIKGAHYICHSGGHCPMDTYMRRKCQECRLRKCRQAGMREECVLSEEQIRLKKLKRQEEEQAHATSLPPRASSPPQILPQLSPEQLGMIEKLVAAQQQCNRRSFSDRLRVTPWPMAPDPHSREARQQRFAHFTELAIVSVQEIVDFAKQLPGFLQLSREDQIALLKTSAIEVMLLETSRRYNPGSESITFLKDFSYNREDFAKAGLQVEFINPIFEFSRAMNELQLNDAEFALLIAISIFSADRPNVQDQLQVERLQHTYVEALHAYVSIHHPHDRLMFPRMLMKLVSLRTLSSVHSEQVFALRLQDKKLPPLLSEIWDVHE

F9 [3] = assay: Activation of RAR in mouse F9 cells assessed as increase in CYP26A1 mRNA level at 10 uM after 48 hrs by RT-PCR analysis in presence of RAR antagonist BMS493
[4] = target: T3, Retinoic acid receptor alpha (Homo sapiens) (UniProt P10276); assay: Agonist activity at human RARalpha expressed in HEK293 cells assessed as transcriptional activation at 0.1 to 50 uM after 40 hrs by luciferase reporter gene assay
T3 sequence (whole entry): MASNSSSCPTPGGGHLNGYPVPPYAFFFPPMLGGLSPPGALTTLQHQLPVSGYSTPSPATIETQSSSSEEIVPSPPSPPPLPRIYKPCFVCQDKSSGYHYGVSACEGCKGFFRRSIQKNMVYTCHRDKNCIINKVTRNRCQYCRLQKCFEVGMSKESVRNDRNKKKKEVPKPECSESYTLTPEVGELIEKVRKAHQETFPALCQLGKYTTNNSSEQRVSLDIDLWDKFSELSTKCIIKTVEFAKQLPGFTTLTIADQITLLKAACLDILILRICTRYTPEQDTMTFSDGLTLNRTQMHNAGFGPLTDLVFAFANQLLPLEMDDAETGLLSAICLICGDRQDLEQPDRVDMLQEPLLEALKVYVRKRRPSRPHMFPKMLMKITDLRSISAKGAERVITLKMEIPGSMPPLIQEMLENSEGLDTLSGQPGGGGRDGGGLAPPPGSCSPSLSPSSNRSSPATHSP

[5] = target: T4, Peroxisome proliferator-activated receptor delta (Homo sapiens) (UniProt Q03181); assay: Agonist activity at PPARdelta (unknown origin) expressed in HEK293 cells assessed as transcriptional activation at 1 to 25 uM after 40 hrs by luciferase reporter gene assay
T4 sequence (whole entry): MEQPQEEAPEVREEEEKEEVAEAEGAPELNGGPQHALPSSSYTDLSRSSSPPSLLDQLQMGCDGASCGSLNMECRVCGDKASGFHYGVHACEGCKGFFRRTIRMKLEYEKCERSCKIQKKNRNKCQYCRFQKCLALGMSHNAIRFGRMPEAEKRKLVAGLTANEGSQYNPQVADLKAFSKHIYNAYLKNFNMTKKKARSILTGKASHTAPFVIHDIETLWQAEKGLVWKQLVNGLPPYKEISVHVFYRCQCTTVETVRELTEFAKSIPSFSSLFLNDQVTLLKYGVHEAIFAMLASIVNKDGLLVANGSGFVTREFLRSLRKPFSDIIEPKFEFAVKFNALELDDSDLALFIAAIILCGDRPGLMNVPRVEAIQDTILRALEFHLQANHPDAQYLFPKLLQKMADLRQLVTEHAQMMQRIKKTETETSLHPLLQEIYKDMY

[6] = target: T1, Retinoic acid receptor (Homo sapiens); assay: Induction of RAR-mediated differentiation of human HL60 cells at 1 uM after 4 days by NBT assay; conditions: HL-60
[7] = target: T5, Peroxisome proliferator-activated receptor gamma (Homo sapiens) (UniProt P37231); assay: Agonist activity at PPARgamma (unknown origin) expressed in HEK293 cells assessed as transcriptional activation at 1 to 25 uM after 40 hrs by luciferase reporter gene assay
T5 sequence (whole entry): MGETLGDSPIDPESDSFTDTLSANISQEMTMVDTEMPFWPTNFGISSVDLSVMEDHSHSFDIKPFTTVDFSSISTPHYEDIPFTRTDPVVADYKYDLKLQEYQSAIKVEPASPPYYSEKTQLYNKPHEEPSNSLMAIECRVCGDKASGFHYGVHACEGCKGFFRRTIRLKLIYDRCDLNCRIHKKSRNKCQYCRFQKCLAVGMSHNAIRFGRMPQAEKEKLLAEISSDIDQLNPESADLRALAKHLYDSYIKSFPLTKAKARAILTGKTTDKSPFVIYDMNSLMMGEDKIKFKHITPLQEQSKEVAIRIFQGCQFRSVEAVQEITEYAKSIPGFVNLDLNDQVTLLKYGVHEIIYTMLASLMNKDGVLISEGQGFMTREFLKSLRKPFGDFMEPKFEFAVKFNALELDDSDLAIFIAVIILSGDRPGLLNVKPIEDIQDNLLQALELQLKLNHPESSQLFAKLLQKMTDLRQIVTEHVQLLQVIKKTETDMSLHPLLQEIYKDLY

F9 [8] = assay: Activation of RAR in mouse F9 cells assessed as increase in CYP26A1 mRNA level at 10 uM after 48 hrs by RT-PCR analysis
[9] = target: T3, Retinoic acid receptor alpha (Homo sapiens); assay: Agonist activity at human RARalpha expressed in HEK293 cells assessed as transcriptional activation at 1 to 100 uM after 40 hrs by luciferase reporter gene assay in presence of RAR antagonist LE135
[10] = target: T1, Retinoic acid receptor (Homo sapiens); assay: Induction of RAR-mediated differentiation of human HL60 cells at 1 to 25 uM after 4 days by NBT assay; conditions: HL-60
[11] = target: T3, Retinoic acid receptor alpha (Homo sapiens); assay: Agonist activity at human RARalpha expressed in HEK293 cells assessed as transcriptional activation at 1 to 100 uM after 40 hrs by luciferase reporter gene assay
[12] = target: T6, Retinoic acid receptor RXR-alpha (Homo sapiens) (UniProt P19793); assay: Agonist activity at human RXRalpha expressed in HEK293 cells assessed as transcriptional activation up to 100 uM after 40 hrs by luciferase reporter gene assay
T6 sequence (whole entry): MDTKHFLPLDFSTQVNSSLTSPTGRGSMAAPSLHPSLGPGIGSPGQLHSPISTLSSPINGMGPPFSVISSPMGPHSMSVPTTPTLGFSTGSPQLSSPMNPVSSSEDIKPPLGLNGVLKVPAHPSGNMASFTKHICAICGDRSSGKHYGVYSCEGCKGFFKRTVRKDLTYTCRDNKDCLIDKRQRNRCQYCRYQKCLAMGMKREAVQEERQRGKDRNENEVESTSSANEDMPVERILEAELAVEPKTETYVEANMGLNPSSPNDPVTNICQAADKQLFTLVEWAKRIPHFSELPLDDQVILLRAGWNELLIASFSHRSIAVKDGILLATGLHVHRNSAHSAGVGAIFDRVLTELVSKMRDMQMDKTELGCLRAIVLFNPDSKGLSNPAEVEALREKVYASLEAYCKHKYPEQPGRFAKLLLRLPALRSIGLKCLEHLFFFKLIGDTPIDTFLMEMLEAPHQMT

F9 [13] = assay: Activation of RAR in mouse F9 cells assessed as increase in CYP26A1 mRNA level at 0.01 uM after 48 hrs by RT-PCR analysis

T1 sequence (P10826 whole entry, looked up, one chain of several): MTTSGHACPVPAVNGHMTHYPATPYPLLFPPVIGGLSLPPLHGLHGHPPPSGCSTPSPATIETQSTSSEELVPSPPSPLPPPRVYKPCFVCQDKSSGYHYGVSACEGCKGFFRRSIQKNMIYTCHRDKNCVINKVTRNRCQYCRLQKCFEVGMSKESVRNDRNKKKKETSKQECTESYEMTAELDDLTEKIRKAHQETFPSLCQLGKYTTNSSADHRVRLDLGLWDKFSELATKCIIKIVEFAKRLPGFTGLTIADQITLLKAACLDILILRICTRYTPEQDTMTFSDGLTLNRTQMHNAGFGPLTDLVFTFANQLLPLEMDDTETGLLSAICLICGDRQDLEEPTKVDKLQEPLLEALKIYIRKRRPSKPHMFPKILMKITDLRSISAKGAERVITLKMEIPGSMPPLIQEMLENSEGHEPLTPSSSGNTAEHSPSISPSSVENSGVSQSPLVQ
T1 sequence (P13631 whole entry, looked up, one chain of several): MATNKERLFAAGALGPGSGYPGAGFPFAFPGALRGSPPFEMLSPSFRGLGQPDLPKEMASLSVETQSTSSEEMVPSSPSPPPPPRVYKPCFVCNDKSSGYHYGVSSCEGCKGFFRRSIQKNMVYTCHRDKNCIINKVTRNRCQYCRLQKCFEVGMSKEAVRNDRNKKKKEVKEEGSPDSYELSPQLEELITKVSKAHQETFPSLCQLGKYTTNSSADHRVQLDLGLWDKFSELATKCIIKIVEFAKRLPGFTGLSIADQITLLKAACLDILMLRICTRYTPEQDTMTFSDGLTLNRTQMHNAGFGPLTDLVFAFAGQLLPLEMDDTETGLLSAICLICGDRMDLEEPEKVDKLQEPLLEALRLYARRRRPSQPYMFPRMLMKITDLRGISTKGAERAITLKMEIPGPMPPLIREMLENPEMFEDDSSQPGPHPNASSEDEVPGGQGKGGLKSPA

Row | Compound | Activity [1] | Activity [2] | Activity (F9 [3]) | Activity [4] | Activity [5] | Activity [6] | Activity [7] | Activity (F9 [8]) | Activity [9] | Activity [10] | Activity [11] | Activity [12] | Activity (F9 [13])
1 | C=C[C@@]1(C)C=C2CC[C@@H]3[C@](C)(CCC[C@@]3(C)C(=O)O)[C@H]2CC1 | Active | inactive | inactive | Active | inactive | Active | inactive | Active |  |  |  |  | 
2 | C=C[C@]1(C)C=C2CC[C@H]3[C@@](C)(CCC[C@@]3(C)C(=O)O)[C@@H]2CC1 | inactive | inactive | inactive | Active | inactive |  | inactive | Active | inactive | Active | Active | inactive | 
3 | CC(C)C1=CC2=CC[C@@H]3[C@](C)(CCC[C@@]3(C)C(=O)O)[C@H]2CC1 | Active | inactive | inactive | Active | inactive | Active | Active | Active |  |  |  |  | 
4 | C=C1C[C@@]23CC[C@H]4[C@@](C)(CCC[C@@]4(C)C(=O)O)[C@@H]2CC[C@]1(O)C3 |  |  |  | inactive |  |  |  |  |  |  |  |  | 
5 | COC(=O)[C@H](C)NC(=O)[C@]1(C)CCC[C@]2(C)c3ccc(C(C)C)cc3CC[C@@H]12 |  |  |  | inactive |  |  |  |  |  |  |  |  | 
6 | CC1=C(/C=C/C(C)=C/C=C/C(C)=C/C(=O)O)C(C)(C)CCC1 |  |  |  |  |  | Active |  |  |  |  |  |  | Active

— ChEMBL document CHEMBL3286315, “Retinoic acid receptor agonist activity of naturally occurring diterpenes” (Bioorg Med Chem, 2014)
